From US8524713B2, “Substituted spirocyclic piperidine derivatives as histamine-3 (H3) receptor ligands” (Cephalon, Inc, priority 2008, dated 2013)

Assays:
human H3 receptor = biological target: T1, human H3 receptor (Homo sapiens, UniProt Q9Y5N1); assay: Human H3 radioligand binding ([3H]-N-alpha-methylhistamine, SPA); conditions: membranes of CHO cells expressing human H3 receptor; [3H]-N-alpha-methylhistamine about 1 nM
T1 construct: expressed in transfected cells; membrane preparation
Procedure: (§1) Methods: CHO cells stably expressing the human H3 receptor (GenBank: NM_007232) were harvested and cell pellets were frozen (−80° C.). Cell pellets were resuspended in 5 mM Tris-HCl, pH 7.5 with […] and a cocktail of protease inhibitors (Complete Protease Inhibitior Tablets, Roche Diagnostics). Cells were disrupted using a polytron cell homogenizer and the suspension was centrifuged at 1000×g for 10 minutes at 4° C. The pellet was discarded and the supernatant centrifuged at 40,000×g for 30 min at 4° C. This membrane pellet was washed in membrane buffer containing 50 mM Tris-HCl, pH 7.5 with 0.6 mM EDTA, 5 mM MgCl2 and protease inhibitors, recentrifuged as above and the final pellet resuspended in membrane buffer plus 250 mM sucrose and frozen at −80° C.
(§2) Radioligand Binding. Membranes were resuspended in 50 mM Tris HCl (pH 7.4), 5 mM MgCl2, 0.1% BSA. The membrane suspensions (10 μg protein per well) were incubated in a 96 well microtiter plate with [^3H]-N-alpha-methylhistamine (approximately 1 nM final concentration), test compounds at various concentrations (0.01 nM-30 μM) and scintillation proximity beads (Perkin Elmer, FlashBlueGPCR Scintillating Beads) in a final volume of 80 μl for 4 hours at room temperature, protected from light. Non-specific binding was determined in the presence of 10 μM clobenpropit. Radioligand bound to receptor, and therefore in proximity to the scintillation beads, was measured using a MicroBeta scintillation counter.

[1] = biological target: T2, rat histamine H3 receptor (Rattus norvegicus, UniProt Q9QYN8); assay: Rat H3 radioligand binding ([3H]-N-alpha-methylhistamine, SPA); conditions: membranes of CHO-A3 cells expressing rat H3 receptor; [3H]-N-alpha-methylhistamine about 1 nM
T2 construct: encoding the entire 445-amino-acid rat histamine H3 receptor; expressed in transfected cells; membrane preparation
Excerpt: as §1, with “Cell line development and membrane preparation. The rat” for “Methods: CHO cells stably expressing the human”, “cDNA was PCR amplified from reverse-transcribed RNA pooled from rat thalamus, hypothalamus, striatum and prefrontal cortex with a sequence corresponding to by #338-1672 of Genbank file #NM_053506, encoding the entire 445-amino-acid rat histamine H3 receptor. This was engineered into the pIRES-neo3 mammalian expression vector, which was stably transfected into the CHO-A3 cell line (Euroscreen, Belgium), followed by clonal selection by limiting dilution. Cells” for “(GenBank: NM_007232)”
as §2

T1 sequence (Q9Y5N1 whole entry): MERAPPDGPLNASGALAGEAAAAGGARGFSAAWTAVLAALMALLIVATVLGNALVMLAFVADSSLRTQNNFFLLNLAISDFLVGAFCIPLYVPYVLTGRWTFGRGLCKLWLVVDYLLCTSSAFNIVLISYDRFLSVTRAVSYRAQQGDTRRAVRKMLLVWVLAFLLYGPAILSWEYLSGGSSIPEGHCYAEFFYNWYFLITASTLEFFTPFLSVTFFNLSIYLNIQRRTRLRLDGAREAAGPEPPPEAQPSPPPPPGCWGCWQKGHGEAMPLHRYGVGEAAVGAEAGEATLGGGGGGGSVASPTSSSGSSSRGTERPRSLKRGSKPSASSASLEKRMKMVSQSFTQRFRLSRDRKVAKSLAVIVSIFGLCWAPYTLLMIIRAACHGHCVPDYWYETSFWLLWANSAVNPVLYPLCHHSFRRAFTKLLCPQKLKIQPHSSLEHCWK
T2 sequence (Q9QYN8 whole entry): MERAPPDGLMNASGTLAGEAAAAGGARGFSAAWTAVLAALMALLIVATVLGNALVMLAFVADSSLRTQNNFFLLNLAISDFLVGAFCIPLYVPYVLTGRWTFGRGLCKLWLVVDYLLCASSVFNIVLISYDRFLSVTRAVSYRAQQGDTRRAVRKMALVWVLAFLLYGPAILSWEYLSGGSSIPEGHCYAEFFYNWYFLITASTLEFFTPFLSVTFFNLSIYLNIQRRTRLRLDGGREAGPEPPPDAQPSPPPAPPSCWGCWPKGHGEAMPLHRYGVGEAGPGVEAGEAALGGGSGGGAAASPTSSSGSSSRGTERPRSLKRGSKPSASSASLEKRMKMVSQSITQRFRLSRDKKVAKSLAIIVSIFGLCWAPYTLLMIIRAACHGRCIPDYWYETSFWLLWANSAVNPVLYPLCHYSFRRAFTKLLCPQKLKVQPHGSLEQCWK

SMILES: Cc1cc(=O)[nH]nc1-c1ccc2c(c1)CCC1(CCN(C3CCC3)CC1)O2 [Example 13, 1′-Cyclobutyl-6-(5-methyl-2H-pyridazin-3-one-6-yl)-spiro[3,4-dihydrobenzopyran-2,4′-piperidine]]
- Ki (human H3 receptor): < 200 nM
- Ki [1]: < 200 nM
- melting point: 270 to 272 °C

SMILES: Cc1cc(=O)[nH]nc1-c1ccc2c(c1)CC1(CCN(C3CCC3)CC1)O2 [Example 4, 6-(Cyclobutyl-spiro[benzofuran-2(3H),4′-piperidine]-5-yl)-5-methyl-2H-pyridazin-3-one]
- Ki (human H3 receptor): < 200 nM
- Ki [1]: < 200 nM
- melting point: 243 to 245 °C

SMILES: CC(C)N1CCC2(CCc3cc(C4=NNC(=O)C(C)(C)C4)ccc3O2)CC1 [Example 14]
- Ki (human H3 receptor): < 200 nM
- Ki [1]: < 200 nM
- melting point: 210 to 213 °C

SMILES: Cn1nc(-c2ccc3c(c2)CCC2(CCN(C4CCC4)CC2)O3)ccc1=O [Example 20]
- Ki (human H3 receptor): < 200 nM
- Ki [1]: < 200 nM
- melting point: 147 to 149 °C

SMILES: O=c1cc(-c2ccc3c(c2)CCC2(CCN(C4CCC4)CC2)O3)cn[nH]1 [Example 19]
- Ki (human H3 receptor): < 200 nM
- Ki [1]: < 200 nM
- melting point: 216 to 219 °C

SMILES: CC1CC(=O)NN=C1c1ccc2c(c1)CC1(CCN(C3CCC3)CC1)O2 (stereo not drawn) [Example 3, 6-(1-Cyclobutyl-spiro[benzofuran-2(3H),4′-piperidine]-5-yl)-5-methyl-4,5-dihydro-2H-pyridazin-3-one]
- Ki (human H3 receptor): < 200 nM
- Ki [1]: 200 to 1000 nM
- melting point: 213 to 215 °C

SMILES: CC1CC(=O)NN=C1c1ccc2c(c1)CCC1(CCN(C3CCC3)CC1)O2 (stereo not drawn) [Example 12, 1′-Cyclobutyl-6-(5-methyl-4,5-dihydro-2H-pyridazin-3-one-6-yl)-spiro[3,4-dihydrobenzopyran-2,4′-piperidine]]
- Ki (human H3 receptor): < 200 nM
- Ki [1]: < 200 nM
- melting point: 207 to 209 °C

SMILES: O=c1ccc(Oc2ccc3c(c2)CCC2(CCN(C4CCC4)CC2)O3)n[nH]1 [Example 18]
- Ki (human H3 receptor): < 200 nM
- Ki [1]: < 200 nM
- melting point: 233 to 235 °C

SMILES: O=C1CCC(c2ccc3c(c2)CCC2(CCN(C4CCC4)CC2)O3)=NN1 [Example 5]
- Ki (human H3 receptor): < 200 nM
- Ki [1]: < 200 nM
- melting point: 242 to 243.5 °C

SMILES: O=c1cc(-c2ccccc2)c(-c2ccc3c(c2)COC2(CCN(C4CCC4)CC2)O3)n[nH]1 [Example 33]
- Ki (human H3 receptor): < 200 nM
- Ki [1]: < 200 nM
- melting point: 260 to 262 °C

SMILES: O=c1ccc(-c2ccc3c(c2)COC2(CCN(C4CCC4)CC2)O3)n[nH]1 [Example 28]
- Ki (human H3 receptor): < 200 nM
- Ki [1]: < 200 nM
- melting point: 273 to 275 °C
